Measured values as given in PubChem BioAssay AID1159557 (GlaxoSmithKline (GSK), 2015).
pIC50: −log10 of the molar value. Activity calls are given as the source filed them. How the calls were made is not given here.

Test system: Trypanosoma brucei growth inhibition
Assay: T. brucei growth inhibition (AID 1159557);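 further: parasites exposed to compound for 48 h before the resazurin readout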

Row | SMILES | pIC50 | IC50
1 | O=C(Nc1ccc(S(=O)(=O)N2CCCC2)cc1)c1ccc([N+](=O)[O-])s1 | 6.80 | –
2 | O=S1N=C(NCCCN(Cc2ccc(F)cc2)c2ccccn2)C(NCc2ccncc2)=N1 (stereo not drawn) | 6.49 | –
3 | Cc1ccc(-c2csc(NC(=O)C=Cc3ccc(S(=O)(=O)N4CCOCC4)cc3)n2)o1 | 5.49 | –
4 | CC(C)(C)Nc1nc(-c2ccccn2)nc2ccccc12 | 5.20 | –
5 | CC(C)c1cc(C(=O)N2CCCC(c3cc4ncccc4[nH]3)C2)on1 (stereo not drawn) | – | > 40 µM (inactive)
6 | CN(C)Cc1ccc(N2CCC(NS(=O)(=O)c3ccc(Cl)cc3)CC2)cc1 | 4.60 | –
7 | COc1cccc(-c2c(C)nn(-c3nc(N)nc(-c4ccccn4)n3)c2N)c1 | – | > 40 µM (inactive)
8 | CCCn1c(NC(=O)Cc2ccc(Cl)cc2)nc2ccccc21 | 5.70 | –
9 | Cc1ccc(NC(=O)c2ccnc(N3CCCC3)c2)cc1-c1ccsc1C(N)=O | 7.20 | –
10 | Cc1nn(-c2ccccc2)nc1CNC(=O)CN(Cc1ccccn1)Cc1ccccn1 | 4.49 | –
11 | Cc1cc2nc(CN(C)Cc3ncccc3C)[nH]c2cc1C | 6.20 | –
12 | CC(C)c1sc(Cl)nc1C(=O)NCCc1nc(C(=O)Nc2ccc3c(c2)OCO3)cs1 | 4.60 | –
13 | COc1ncc(-c2ccc3nccc(-c4ccncc4)c3c2)cc1NS(=O)(=O)C1CC1 | 6.70 | –
14 | CN(Cc1nc2ccc(C(=O)NCC3CCCCC3)cc2[nH]1)C1CCCc2cccnc21 (stereo not drawn) | 6.10 | –
15 | O=C(c1cnn(-c2ccccc2)n1)N1CCCC(n2ccnc2)C1 (stereo not drawn) | – | > 40 µM (inactive)
16 | COc1ccc([N+](=O)[O-])cc1NC(=O)Nc1cccc(Cl)c1 | 5.20 | –
17 | Cc1nc2c(-c3ncn[nH]3)cc(NC(=O)Cc3ccccc3)cn2c1C | 5.49 | –
18 | CNS(=O)(=O)c1ccccc1Nc1nc(Nc2cc(C)nn2C)ncc1Cl | 7.20 | –
19 | c1ccc(Nc2nc(-c3ccccn3)cc(N3CCOCC3)n2)cc1 | 4.80 | –
20 | Cc1ccc2sc(NC(=O)Cn3cnc([N+](=O)[O-])n3)nc2c1 | 4.60 | –
21 | COc1cc(NC(=O)Nc2cccc(CNC(=O)OC3CCCCC3)c2)ccc1-c1cnco1 | 6.60 | –
22 | O=C(NCC1CCCCC1)c1cnns1 | 6.00 | –

Row | SMILES | pIC50 | IC50
23 | NC(=O)c1cc(F)ccc1Nc1nc(NC2CCC(O)CC2)ncc1Cl (stereo not drawn) | 6.80 | –
24 | Cc1cc(NC(=O)CC2CCCCC2)n(-c2nc3c(c(=O)[nH]2)CCC3)n1 | 6.70 | –
25 | COCc1cc(Nc2ccc(Cl)cc2)nc(-c2ccccn2)n1 | 4.70 | –
26 | Cn1ccnc1CN1CCc2[nH]cnc2C1c1ccccc1OCc1ccccc1 (stereo not drawn) | 6.40 | –
27 | N#Cc1cccc(CN2CCC(c3nc(-c4ccc(C(F)(F)F)nc4)no3)CC2)c1 | – | > 40 µM (inactive)
28 | C[C@@H](Oc1cc(-n2cnc3ccc(C(O)CO)cc32)sc1C(N)=O)c1ccccc1C(F)(F)F (stereo partly drawn) | 6.40 | –
29 | N#Cc1ccccc1S(=O)(=O)N1CCN(C(=O)CNC(=O)c2ccc3c(c2)OCO3)CC1 | – | > 40 µM (inactive)
30 | COCCn1c(-c2ccccc2)cnc1NCc1ccccc1OC | 4.60 | –
31 | CC1=NN(C(=O)CCn2cnc([N+](=O)[O-])n2)C(O)(C(F)(F)F)C1 (stereo not drawn) | – | > 40 µM (inactive)
32 | NC(=O)c1cc(F)ccc1Nc1nc(NC2CCC(O)CC2)ncc1Br (stereo not drawn) | 7.10 | –
33 | CC(=O)Nc1cccc(Nc2ncnc3nc[nH]c23)c1 | 6.89 | –
34 | Nc1nc(-c2ccccn2)nc(N)c1Cc1c(F)cccc1Cl | 5.60 | –
35 | CCc1nn(-c2ncc(F)c(NC(C)C)n2)c(N)c1C1CCCCC1 | 5.00 | –
36 | CCn1c(-c2nonc2N)nc2c([C@@H](C)O)ncc(O[C@H](CN)c3ccccc3)c21 | 6.20 | –
37 | CCC(=O)Nc1ccc(C(=O)Nc2ccccc2-c2ccccc2)cc1 | 4.70 | –
38 | Cc1cc(N(C)C)nc2ccc(Cc3cnc(N)nc3N)cc12 | 5.30 | –
39 | COc1ccc(-c2cc(C)no2)cc1S(=O)(=O)Nc1ccc(F)c(Cl)c1 | 4.80 | –
40 | N#Cc1ccc(C(=O)Nc2cccc(-c3cccc(CN4CCC(O)CC4)c3)c2)cc1 | 6.10 | –
41 | COCCn1cnc2cc(NC(=O)C3CCCCC3)cc(C(=O)N3CCc4sccc4C3)c21 | 6.10 | –
42 | NC(=O)c1cc(NC(=O)c2ccccc2COc2ccccc2)ccc1Cl | 4.80 | –
43 | COc1ccc([N+](=O)[O-])cc1NC(=O)c1cc(Cl)ccc1O | 4.60 | –
44 | Cc1ccc(S(C)(=O)=O)cc1Nc1nccc(-c2sc(N)nc2-c2ccccc2)n1 | 6.10 | –

Row | SMILES | pIC50 | IC50
45 | COc1cccc(Nc2cc(C)nc(-c3ccccn3)n2)c1 | – | > 40 µM (inactive)
46 | COc1ccc2nccc(NC(=O)C3(OC)CCN(CC(O)c4ccc5c(c4)OCCO5)CC3)c2n1 (stereo not drawn) | 6.40 | –
47 | CCOc1ccc(Nc2ccc(S(=O)(=O)N3CCN(C)CC3)cc2[N+](=O)[O-])cc1OCC | 5.20 | –
48 | Cc1ccc(NC(=O)C(C)n2nc([N+](=O)[O-])c(Br)c2C)cc1Cl (stereo not drawn) | 4.80 | –
49 | O=C(NCCc1csc(-c2cccc(F)c2)n1)c1ccco1 | 6.30 | –
50 | Cc1cc(N2CCc3ccccc3C2)nc(Nc2ccc(S(=O)(=O)N3CCOCC3)cc2)n1 | 4.49 | –
51 | CC(=O)Nc1ccc(CN2CCC(N3CC(c4ccccc4)(c4ccccc4)OCC3=O)CC2)cc1 | 6.49 | –
52 | C=CCN(Cc1cccs1)C(=O)CSc1nnc(-c2ccc3c(c2)OCO3)o1 | 4.70 | –
53 | CC(C)(C)C(=O)Nc1cc(C2CC2)nn1-c1nc2c(c(=O)[nH]1)CCCC2 | 6.80 | –
54 | O=C(CCCn1cnc([N+](=O)[O-])n1)Nc1cccc(Cl)c1 | 5.30 | –
55 | Cc1c(C(=O)NCCCCn2ccnc2)oc2c(C)cccc12 | 4.70 | –
56 | Cc1ccccc1CNc1cc(C2CC2)nc(-c2nccn2C)n1 | 5.60 | –
57 | COc1ccc(C(C)N(C)c2ncc3c(N)nc(N)nc3n2)cc1F (stereo not drawn) | 4.89 | –
58 | O=C(CN1CCN(S(=O)(=O)c2cccc([N+](=O)[O-])c2)CC1)Nc1ccc(Oc2ccccc2)cc1 | 4.70 | –
59 | CCCCn1nnnc1CSc1nc(C)cc(C)c1C#N | – | > 40 µM (inactive)
60 | COc1ccc(C2=NCC(CSc3nnc(-c4ccc5c(c4)OCO5)o3)S2)cc1 (stereo not drawn) | 5.00 | –
61 | CC(C)N(C(=O)CN1C(=O)C(N)C(=O)N(c2ccccc2)c2ccccc21)c1ccccc1 (stereo not drawn) | – | > 40 µM (inactive)
62 | O=C(NCCc1csc(-c2ccc(F)cc2)n1)c1ccco1 | 6.40 | –
63 | Cc1cccnc1CN1CCN(CCCOc2ccc(-c3ccc(C(N)=O)cc3)cc2)CC1 | 5.00 | –
64 | CN1CCCN(C(=O)c2ccc(N3CCCC3)cc2Cl)CC1 | – | > 40 µM (inactive)
65 | CC(C)Nc1nccc(-c2c(-c3ccc(F)cc3)ncn2C2CCOCC2)n1 | 5.30 | –
66 | COc1ccc(CNc2cc(C3CC3)nc(-c3nccn3C)n2)cc1 | 5.89 | –

Row | SMILES | pIC50 | IC50
67 | COc1ccc(CN2C(=O)C(O)(CC(=O)c3ccncc3)c3cc(Br)ccc32)cc1OC (stereo not drawn) | 6.20 | –
68 | COc1cccc(CN(C)Cc2nc(N)c3c(C)c(C)sc3n2)c1 | 5.30 | –
69 | OC[C@@H](Nc1nccc(-c2c(-c3ccc(F)cc3)ncn2C2CCNCC2)n1)c1ccccc1 | 6.40 | –
70 | Cc1ccc(CNC2CCN(C[C@@H]3Cn4c(=O)ccc5ccc(=O)n3c54)CC2)cc1F | 5.80 | –
71 | O=C(c1cccc(Nc2ncc(-c3ccc4c(c3)OCO4)cn2)c1)N1CCOCC1 | 4.60 | –
72 | COc1ccc(-c2cnc(C)o2)cc1S(=O)(=O)Nc1ccc(C)cc1C | 5.20 | –
73 | O=C(Cc1ccccc1)Nc1[nH]nc2sc(C(=O)NC3CCCC3)cc12 | 6.40 | –
74 | Cc1nn(C2CCS(=O)(=O)C2)c(C)c1CN(C)C(=O)C=Cc1sc2ccccc2c1Cl (stereo not drawn) | 5.00 | –
75 | Cc1nn(C)c(Cl)c1CN(Cc1cccnc1)Cc1ccsc1 | – | > 40 µM (inactive)
76 | O=c1cc(NCCCNCc2cc(C(F)(F)F)cs2)[nH]c2ccccc12 | 6.49 | –
77 | CCCCN(C(=O)c1ccc(NC(=O)C(C)C)cc1)c1ccccc1 | 4.80 | –
78 | CNc1cncc(C2CCCN2C(=O)Cc2ccc3ccccc3c2)n1 (stereo not drawn) | – | > 40 µM (inactive)
79 | O=C(Nc1ccc(Br)c(Cl)c1)Nc1ccc2c(c1)OCO2 | 5.10 | –
80 | COc1ncc(-c2ccc3ncnc(N4CCOCC4)c3c2)cc1NS(C)(=O)=O | 6.49 | –
81 | O=C(Nc1n[nH]c(-c2ccccn2)n1)C1CC1c1ccccc1 (stereo not drawn) | – | > 13 µM (inactive)
82 | CS(=O)(=O)c1cccc(CNC(=O)c2cncc(N3CCN(c4ccc(F)cc4)CC3)c2)c1 | 4.49 | –
83 | CC(Cn1ccnc1)NC(=O)C1CC1c1cccc(Cl)c1Cl (stereo not drawn) | – | > 40 µM (inactive)
84 | Cc1cc(Oc2cc(Cl)c(Cl)cc2Cl)n2ncnc2n1 | 6.10 | –
85 | CS(=O)(=O)c1ccc(CC(=O)Nc2nc(-c3ccc(Cl)s3)cs2)cc1 | 5.00 | –
86 | CC(C)CC(=O)Nc1cc(C2CC2)nn1-c1nc2c(c(=O)[nH]1)CCCC2 | 6.70 | –
87 | COc1ccc(C(=O)NC2CCN(CCn3c(=O)ccc4ncc(F)cc43)CC2)cc1Cl | 6.89 | –
88 | COc1ccc(OC)c(S(=O)(=O)N(Cc2c(F)cccc2F)[C@@H]2CCN(C#N)C2)c1 | 6.20 | –

Row | SMILES | pIC50 | IC50
89 | O=C(c1ccc(Cl)cc1)c1ccc(OC(=O)N2CCOCC2)cc1 | 5.10 | –
90 | CCC(=O)Nc1ccc(-c2nc3ccc(Cl)cc3[nH]2)cc1 | 5.20 | –
91 | O=C(CCc1ccc(-c2ccccc2)o1)N1CCN(c2ccc(O)cc2)CC1 | 4.60 | –
92 | CCN(C)Cc1ccc(N2CCC(NS(=O)(=O)c3ccc4c(c3)CCO4)CC2)nc1 | – | > 40 µM (inactive)
93 | Cc1cc(C)cc(NS(=O)(=O)c2cc(-c3cc(C)[nH]n3)ccc2C)c1 | 6.00 | –
94 | Cn1c(CC(=O)NNC(=O)c2ccc3ccccc3n2)nc2ccccc21 | 5.10 | –
95 | COc1cnc2ccc(=O)n(CCN3CCC(NC(=O)Cc4ccc(Cl)c(Cl)c4)CC3)c2c1 | 6.60 | –
96 | CNc1nc(C)nc(N2CCc3cc(C(=O)NCc4ccc(-c5nccn5C)cc4Cl)ccc32)n1 | 4.89 | –
97 | COc1ccc(S(=O)(=O)Nc2ccc(C(=O)Nc3nc(-c4ccccn4)cs3)cc2)cc1 | 6.10 | –
98 | N#Cc1cc([N+](=O)[O-])ccc1NC1CCCCCC1 | 5.60 | –
99 | Cc1ccccc1NS(=O)(=O)c1ccc2[nH]cc(C(=O)NC3CCCCC3)c(=O)c2c1 | 6.60 | –
100 | O=C(CSc1ccc(-c2ccccn2)nn1)Nc1ccc(Cl)cc1 | 5.00 | –
101 | Cc1nc2c(-c3n[nH]c(-c4ccccc4N)n3)cccn2c1C | 6.00 | –
102 | c1ccc2sc(Nc3nc4ncccc4[nH]3)nc2c1 | 6.00 | –
103 | O=C(NCc1ccncc1)c1ccccc1N1CCCN(C(=O)Cc2ccc(F)c(F)c2)CC1 | 5.20 | –
104 | CC(C)CC(=O)NC(c1cccs1)c1ccc2cccnc2c1O (stereo not drawn) | 6.20 | –
105 | CN(C)c1ccc(N)cc1CN(CC1CCCO1)S(C)(=O)=O (stereo not drawn) | – | > 40 µM (inactive)
106 | CCNc1cc(-c2ccccn2)nc(Nc2ccccc2)n1 | 4.60 | –
107 | CN(C)c1ncc(-c2cncn2CCOc2ccc(Cl)cc2)cn1 | – | > 40 µM (inactive)
108 | Clc1ccc(CN2CCN(C3=NCCN3)CC2)cc1Cl | – | > 40 µM (inactive)
